# Measured values: US9790213B2, “Imidazoles for the treatment and prophylaxis of respiratory syncytial virus infection” (Hoffmann-La Roche Inc., priority 2015, dated 2017)
# System: RSV Long strain (ATCC VR-26)
# Test: Viral cytopathic effect (CPE) assay
# Assay type: cell-based
# Settings: human respiratory syncytial virus, 120 h, cell viability after 5 days (Cell Counting kit-8)
# Method: EC50: the concentration of a compound where 50% of its maximal protection effect against viral induced CPE is observed LongStrain: a subtype RSV strain obtained from ATCC with catalog number VR-26 To measure anti-RSV activity of compounds, 96-well plates were seeded with 6×10^3 cells per well in Dulbecco's modified Eagle's medium (DMEM) containing 10% fetal bovine serum (FBS). Cells were infected the next day with sufficient RSV Long strain (ATCC) to produce an approximately 80-90% cytopathic effect after 5 days, in the presence of serial half-log diluted compound in a total volume of 200 μL per well. The viability of cells is assessed after 5 days using Cell Counting kit-8 (Dojindo Molecular Technologies). The absorbance at 450 nm and referenced at 630 nm is measured to determine 50% effective concentration (EC50).
row,EC50 [µM],Molecule
1,4.06,"COC(=O)c1ccc(-c2noc(-c3nc(C)n(-c4ccccc4Cl)c3C)n2)cc1 [Example 1-4, 4-{5-[1-(2-Chloro-phenyl)-2,5-dimethyl-1H-imidazol-4-yl]-[1,2,4]oxadiazol-3-yl}-benzoic acid methyl ester]"
2,0.78,"COc1cc(-c2noc(-c3cn(-c4ccccc4Br)c(C)n3)n2)cc(OC)c1OC [Example 1-1, 5-(1-(2-Bromophenyl)-2-methyl-1H-imidazol-4-yl)-3-(3,4,5-trimethoxyphenyl)-1,2,4-oxadiazole]"
3,1.81,"COc1ccc(OC)c(-c2noc(-c3nc(C)n(-c4ccccc4Cl)c3C)n2)c1 [Example 1-17, 5-(1-(2-chlorophenyl)-2,5-dimethyl-1H-imidazol-4-yl)-3-(2,5-dimethoxy-phenyl)-1,2,4-oxadiazole]"
4,1.97,"COc1cc(C(=O)O)ccc1-c1noc(-c2ncn(-c3c(C)cccc3C)c2C)n1 [Example 2-3, 4-{5-[1-(2,6-Dimethyl-phenyl)-5-methyl-1H-imidazol-4-yl]-[1,2,4]oxadiazol-3-yl}-3-methoxy-benzoic acid]"
5,1.79,"COc1cc(-c2noc(-c3nc(CO)n(-c4ccccc4Cl)c3C)n2)cc(OC)c1OC [Example 3-1, (1-(2-Chlorophenyl)-5-methyl-4-(3-(3,4,5-trimethoxyphenyl)-1,2,4-oxadiazol-5-yl)-1H-imidazol-2-yl)methanol]"
6,1.47,"COc1ccc(-c2noc(-c3nc(C)n(-c4ccccc4Cl)c3C)n2)c(OC)c1 [Example 1-16, 5-[1-(2-Chloro-phenyl)-2,5-dimethyl-1H-imidazol-4-yl]-3-(2,4-dimethoxy-phenyl)-[1,2,4]oxadiazole]"
7,1.74,"COc1ccc(-c2noc(-c3ncn(-c4c(C)cccc4Cl)c3C)n2)cc1 [Example 1-15, 5-[1-(2-Chloro-6-methyl-phenyl)-5-methyl-1H-imidazol-4-yl]-3-(4-methoxy-phenyl)-[1,2,4]oxadiazole]"
8,5.96,"COc1cccc(-c2noc(-c3nc(C)n(-c4ccccc4Cl)c3C)n2)c1 [Example 1-22, 5-[1-(2-Chloro-phenyl)-2,5-dimethyl-1H-imidazol-4-yl]-3-(3-methoxy-phenyl)-[1,2,4]oxadiazole]"
9,4.05,"COc1cc(-c2noc(-c3nc(C(=O)O)n(-c4ccccc4Cl)c3C)n2)cc(OC)c1OC [Example 3-2, 1-(2-Chlorophenyl)-5-methyl-4-(3-(3,4,5-trimethoxyphenyl)-1,2,4-oxadiazol-5-yl)-1H-imidazole-2-carboxylic acid]"
10,0.362,"COc1ccc(-c2noc(-c3ncn(-c4c(C)cccc4C)c3C)n2)c(OC)c1 [Example 1-12, 3-(2,4-Dimethoxy-phenyl)-5-[1-(2,6-dimethyl-phenyl)-5-methyl-1H-imidazol-4-yl]-[1,2,4]oxadiazole]"
11,0.59,"COc1cc(-c2noc(-c3ncn(-c4c(C)cccc4Cl)c3C)n2)ccc1C(=O)O [Example 2-5, 4-{5-[1-(2-Chloro-6-methyl-phenyl)-5-methyl-1H-imidazol-4-yl]-[1,2,4]oxadiazol-3-yl}-2-methoxy-benzoic acid]"
12,0.22,"COc1cc(-c2noc(-c3ncn(-c4c(C)cccc4Cl)c3C)n2)cc(OC)c1OC [Example 1-9, 5-[1-(2-Chloro-6-methyl-phenyl)-5-methyl-imidazol-4-yl]-3-(3,4,5-trimethoxyphenyl)-1,2,4-oxadiazole]"
13,5.07,"COc1ccc(-c2noc(-c3nc(C)n(-c4ccccc4Cl)c3C)n2)cc1 [Example 1-11, 5-[1-(2-Chloro-phenyl)-2,5-dimethyl-1H-imidazol-4-yl]-3-(4-methoxy-phenyl)-[1,2,4]oxadiazole]"
14,0.5,"COc1cc(-c2noc(-c3nc(C)n(-c4ccccc4Br)c3C)n2)cc(OC)c1OC [Example 1-3, 5-(1-(2-Bromophenyl)-2,5-dimethyl-1H-imidazol-4-yl)-3-(3,4,5-trimethoxyphenyl)-1,2,4-oxadiazole]"
15,3.08,"Cc1nc(-c2nc(-c3ccc(C(=O)O)cc3)no2)c(C)n1-c1ccccc1Cl [Example 2-2, 4-{5-[1-(2-Chloro-phenyl)-2,5-dimethyl-1H-imidazol-4-yl]-[1,2,4]oxadiazol-3-yl}-benzoic acid]"
16,2.99,"COc1ccc(-c2noc(-c3nc(C)n(-c4ccccc4Cl)c3C)n2)c(F)c1 [Example 1-20, 5-[1-(2-Chloro-phenyl)-2,5-dimethyl-1H-imidazol-4-yl]-3-(2-fluoro-4-methoxy-phenyl)-[1,2,4]oxadiazole]"

row,EC50 [µM],Molecule
1,0.68,"COc1ccc(OC)c(-c2noc(-c3nc(C)n(-c4ccccc4Br)c3C)n2)c1 [Example 1-7, 5-[1-(2-Bromo-phenyl)-2,5-dimethyl-1H-imidazol-4-yl]-3-(2,5-dimethoxy-phenyl)-[1,2,4]oxadiazole]"
2,1.28,"COc1cc(-c2noc(-c3ncc(-c4ccccc4Cl)n3C)n2)cc(OC)c1OC [Example 1-25, 5-[5-(2-Chlorophenyl)-1-methyl-imidazol-2-yl]-3-(3,4,5-trimethoxyphenyl)-1,2,4-oxadiazole]"
3,2.38,"COC(=O)c1ccc(-c2noc(-c3nc(C)n(-c4ccccc4Cl)c3C)n2)cc1OC [Example 1-13, 4-{5-[1-(2-Chloro-phenyl)-2,5-dimethyl-1H-imidazol-4-yl]-[1,2,4]oxadiazol-3-yl}-2-methoxy-benzoic acid methyl ester]"
4,5.31,"COC(=O)c1ccc(-c2noc(-c3nc(C)n(-c4ccccc4Cl)c3C)n2)cc1C [Example 1-21, 4-{5-[1-(2-Chloro-phenyl)-2,5-dimethyl-1H-imidazol-4-yl]-[1,2,4]oxadiazol-3-yl}-2-methyl-benzoic acid methyl ester]"
5,0.78,"COc1cc(-c2noc(-c3nc(Br)n(-c4ccccc4Cl)c3C)n2)cc(OC)c1OC [Example 1-24, 5-[2-Bromo-1-(2-chloro-phenyl)-5-methyl-1H-imidazol-4-yl]-3-(3,4,5-trimethoxy-phenyl)-[1,2,4]oxadiazole]"
6,0.92,"COC(=O)c1ccc(-c2noc(-c3nc(C)n(-c4ccccc4Cl)c3C)n2)c(OC)c1 [Example 1-19, 4-{5-[1-(2-Chloro-phenyl)-2,5-dimethyl-1H-imidazol-4-yl]-[1,2,4]oxadiazol-3-yl}-3-methoxy-benzoic acid methyl ester]"
7,1.59,"COc1cc(-c2noc(-c3nc(C)n(-c4ccccc4Cl)c3C)n2)cc(OC)c1OC [Example 1-18, 5-[1-(2-Chloro-phenyl)-2,5-dimethyl-1H-imidazol-4-yl]-3-(3,4,5-trimethoxy-phenyl)-[1,2,4]oxadiazole]"
8,2.03,"COc1cc(-c2noc(-c3cnc(-c4ccccc4Cl)n3C)n2)cc(OC)c1OC [Example 1-26, 5-[2-(2-Chlorophenyl)-3-methyl-imidazol-4-yl]-3-(3,4,5-trimethoxyphenyl)-1,2,4-oxadiazole]"
9,0.6,"COc1cc(-c2noc(-c3ncn(-c4ccccc4Br)c3C)n2)cc(OC)c1OC [Example 1-2, 5-[1-(2-Bromo-phenyl)-5-methyl-1H-imidazol-4-yl]-3-(3,4,5-trimethoxy-phenyl)-[1,2,4]oxadiazole]"
10,0.51,"COc1cc(-c2noc(-c3ncn(-c4c(C)cccc4C)c3C)n2)cc(OC)c1OC [Example 1-6, 5-(1-(2,6-Dimethylphenyl)-5-methyl-1H-imidazol-4-yl)-3-(3,4,5-trimethoxyphenyl)-1,2,4-oxadiazole]"
11,1.85,"COc1cc(C(=O)O)ccc1-c1noc(-c2ncn(-c3c(C)cccc3Cl)c2C)n1 [Example 2-1, 4-[5-[1-(2-Chloro-6-methyl-phenyl)-5-methyl-imidazol-4-yl]-1,2,4-oxadiazol-3-yl]-3-methoxy-benzoic acid]"
12,2.08,"COc1ccccc1-n1c(C)nc(-c2nc(-c3cc(OC)c(OC)c(OC)c3)no2)c1C [Example 1-23, 5-[1-(2-Methoxy-phenyl)-2,5-dimethyl-1H-imidazol-4-yl]-3-(3,4,5-trimethoxy-phenyl)-[1,2,4]oxadiazole]"
13,0.193,"COc1ccc(-c2noc(-c3ncn(-c4c(C)cccc4Cl)c3C)n2)c(OC)c1 [Example 1-8, 5-[1-(2-Chloro-6-methyl-phenyl)-5-dimethyl-1H-imidazol-4-yl]-3-(2,4-dimethoxy-phenyl)-[1,2,4]oxadiazole]"
14,0.76,"COc1cc(-c2noc(-c3ncn(-c4c(C)cccc4C)c3C)n2)ccc1C(=O)O [Example 2-4, 4-{5-[1-(2,6-Dimethyl-phenyl)-5-methyl-1H-imidazol-4-yl]-[1,2,4]oxadiazol-3-yl}-2-methoxy-benzoic acid]"
15,0.68,"COc1ccccc1-c1noc(-c2nc(C)n(-c3ccccc3Cl)c2C)n1 [Example 1-14, 5-[1-(2-Chloro-phenyl)-2,5-dimethyl-1H-imidazol-4-yl]-3-(2-methoxy-phenyl)-[1,2,4]oxadiazole]"
16,2.4,"COc1ccc(-c2noc(-c3ncn(-c4c(C)cccc4C)c3C)n2)cc1 [Example 1-10, 5-(1-(2,6-Dimethylphenyl)-5-methyl-1H-imidazol-4-yl)-3-(4-methoxyphenyl)-1,2,4-oxadiazol]"

# System: RSV
# Test: not given
# Settings: two separate Phase III clinical trials, selected high-risk infants, prophylactic use; cited from earlier work
row,Molecule,reduction in hospitalization rate
1,"palivizumab: palivizumab (Synagis, MedImmune), approved for prophylactic use in selected high-risk infants",45-55%
